Tests used:
Assay type in all cases: cell-based
SW48 (wt) cells = assay: Cell viability assay (CELLTITER-GLO), SW48 cells; settings: Homo sapiens, 72 h, 3 days incubation, 2.5% fetal bovine serum, read-out: Inhibition of Cancerous Cells IC50 (μM) SW48 (wt)
Procedure: (§1) H358, H23, SW48, and AsPC-1 cells were cultured in RPMI 1640 media supplemented with 10% fetal bovine serum, streptomycin, and penicillin. Lovo and SW480 cells were cultured in DMEM media supplemented with 10% fetal bovine serum, streptomycin, and penicillin. The cell lines were plated in their respective medium supplemented with 2.5% fetal bovine serum, streptomycin, and penicillin. All cell lines were plated in white walled 96-well plates at 2,000 cells/well or 384-well plates at 500 cells/well, except Lovo, which were plated at 4,000 or 1,000 cells/well, respectively. The cells were incubated in DMSO (control) or a compound for 3 days at 37° C. under 5% C02. A CELLTITER-GLO® reagent (100 μL) was then added to each well. After a 10 min incubation with shaking, luminescence was measured using an ENVISION® multimode plate reader. IC50 values are summarized in Table 1 and percentages of inhibition are summarized in Table 2, where compound T1 is 2-(4-(2-methyl-3,5-diphenylpyrazolo[1,5-a]pyrimidin-7-yl)piperazin-1-yl)ethan-1-ol.

H358 (G12C) cells = assay: Cell viability assay (CELLTITER-GLO), H358 cells; settings: Homo sapiens, NCI-H358, 72 h, 3 days incubation, 2.5% fetal bovine serum, read-out: Inhibition of Cancerous Cells IC50 (μM) H358 (G12C)
Procedure: as §1

SW480 (G12V) cells = assay: Cell viability assay (CELLTITER-GLO), SW480 cells; settings: Homo sapiens, 72 h, 3 days incubation, 2.5% fetal bovine serum, read-out: Inhibition of Cancerous Cells IC50 (μM) SW480 (G12V)
Procedure: as §1

Lovo (G13D) cells = assay: Cell viability assay (CELLTITER-GLO), Lovo cells; settings: Homo sapiens, 72 h, 3 days incubation, 2.5% fetal bovine serum, read-out: Inhibition of Cancerous Cells IC50 (μM) Lovo (G13D)
Procedure: as §1

AsPC-1 (G12D) cells = assay: Cell viability assay (CELLTITER-GLO), AsPC-1 cells; settings: Homo sapiens, ASPC1, 72 h, 3 days incubation, 2.5% fetal bovine serum, read-out: Inhibition of Cancerous Cells IC50 (μM) AsPC-1 (G12D)
Procedure: as §1

| SMILES | IC50 (SW48 (wt) cells) [µM] | IC50 (H358 (G12C) cells) [µM] | IC50 (SW480 (G12V) cells) [µM] | IC50 (Lovo (G13D) cells) [µM] | IC50 (AsPC-1 (G12D) cells) [µM] |
| --- | --- | --- | --- | --- | --- |
| Cc1nn2c(N3CCN(CCO)CC3)cc(-c3cccc(CCCN4CCN(C(=O)CNc5ccc(C6CCC(=O)NC6=O)cc5)CC4)c3)nc2c1-c1ccccc1 (stereo not drawn) [Compound B1, 3-(4-((2-(4-(3-(3-(7-(4-(2-Hydroxyethyl)piperazin-1-yl)-2-methyl-3-phenyl-pyrazolo[1,5-a]pyrimidin-5-yl)phenyl)propyl)piperazin-1-yl)-2-oxoethyl)amino)phenyl)-piperidine-2,6-dione] | 1.1 | 0.94 | 1.2 | 0.74 | – |
| Cc1nn2c(N3CCN(CCO)CC3)cc(-c3cccc(CCCCCN4CCN(C(=O)CNc5ccc(C6CCC(=O)NC6=O)cc5)CC4)c3)nc2c1-c1ccccc1 (stereo not drawn) [Compound B2, 3-(4-((2-(4-(5-(3-(7-(4-(2-hydroxyethyl)piperazin-1-yl)-2-methyl-3-phenylpyrazolo[1,5-a]pyrimidin-5-yl)phenyl)pentyl)piperazin-1-yl)-2-oxoethyl)amino)phenyl)piperidine-2,6-dione] | 0.49 | 0.71 | 0.39 | 0.4 | – |
| Cc1nn2c(N3CCN(CCO)CC3)cc(-c3cccc(CCCN4CCN(C(=O)CNc5cccc(C6CCC(=O)NC6=O)c5)CC4)c3)nc2c1-c1ccccc1 (stereo not drawn) [Compound B4, 3-(3-((2-(4-(3-(3-(7-(4-(2-Hydroxyethyl)piperazin-1-yl)-2-methyl-3-phenyl-pyrazolo[1,5-a]pyrimidin-5-yl)phenyl)propyl)piperazin-1-yl)-2-oxoethyl)amino)phenyl)-piperidine-2,6-dione] | 1.4 | 1.1 | 1.3 | 1.1 | – |
| Cc1nn2c(N3CCN(CCO)CC3)cc(-c3ccccc3)nc2c1-c1cccc(CCCCCN2CCN(C(=O)COc3ccc(N4CCC(=O)NC4=O)cc3)CC2)c1 [Compound C7, 1-(4-(2-(4-(5-(3-(7-(4-(2-hydroxyethyl)piperazin-1-yl)-2-methyl-5-phenyl-pyrazolo[1,5-a]pyrimidin-3-yl)phenyl)pentyl)piperazin-1-yl)-2-oxoethoxy)phenyl)dihydro-pyrimidine-2,4(1H,3H)-dione] | 0.7 | 1.1 | 0.45 | 0.73 | 0.91 |
| Cc1nn2c(N3CCN(CCO)CC3)cc(-c3ccccc3)nc2c1-c1cccc(CCCCCCCN2CCN(C(=O)COc3ccc(N4CCC(=O)NC4=O)cc3)CC2)c1 [Compound C8, 1-(4-(2-(4-(7-(3-(7-(4-(2-Hydroxyethyl)piperazin-1-yl)-2-methyl-5-phenyl-pyrazolo[1,5-a]pyrimidin-3-yl)phenyl)heptyl)piperazin-1-yl)-2-oxoethoxy)phenyl)dihydro-pyrimidine-2,4(1H,3H)-dione] | 0.66 | 1.1 | 0.42 | 0.71 | 1.1 |
| Cc1nn2c(N3CCN(CCO)CC3)cc(-c3cccc(CCCCCN4CCN(C(=O)CNc5ccc6c(C7CCC(=O)NC7=O)nn(C)c6c5)CC4)c3)nc2c1-c1ccccc1 (stereo not drawn) [Compound D2, 3-(6-((2-(4-(5-(3-(7-(4-(2-hydroxyethyl)piperazin-1-yl)-2-methyl-3-phenylpyrazolo[1,5-a]pyrimidin-5-yl)phenyl)pentyl)piperazin-1-yl)-2-oxoethyl)amino)-1-methyl-1H-indazol-3-yl)piperidine-2,6-dione] | 0.52 | 0.82 | 0.45 | 0.32 | – |
| Cc1nn2c(N3CCN(CCO)CC3)cc(-c3cccc(CCCN4CCN(C(=O)CNc5cccc6c(C7CCC(=O)NC7=O)nn(C)c56)CC4)c3)nc2c1-c1ccccc1 (stereo not drawn) [Compound D4, 3-(7-((2-(4-(3-(3-(7-(4-(2-Hydroxyethyl)piperazin-1-yl)-2-methyl-3-phenyl-pyrazolo[1,5-a]pyrimidin-5-yl)phenyl)propyl)piperazin-1-yl)-2-oxoethyl)amino)-1-methyl-1H-indazol-3-yl)piperidine-2,6-dione] | 0.94 | 0.75 | 0.84 | 0.52 | – |

Source: patent publication US20240190883A1, “KRAS PROTEIN DEGRADERS, PHARMACEUTICAL COMPOSITIONS THEREOF, AND THEIR THERAPEUTIC APPLICATIONS” (BioTheryX, Inc., priority 2021, published 2024)
